Source: patent publication US20140038953A1, “COMPOSITIONS AND METHODS FOR CARDIOVASCULAR DISEASE” (THE GENERAL HOSPITAL CORPORATION, priority 2011, published 2014)
“Also recorded” adds a separate entry of the source.

Tests used:
[1] = tested on: constitutively-active mutant form of ALK2; experiment: Mouse model of FOP (constitutively-active mutant ALK2); assay type: in vivo; conditions: 3 mg/kg ip twice daily
Text: A mouse model of FOP has been developed in which expression of a constitutively-active mutant form of ALK2 is induced by injecting the popliteal fossa of a genetically-modified mouse with an adenovirus directing expression of Cre recombinase. This model reproduces the ectopic calcification and disability seen in FOP patients.

LDLR−/− mice = experiment: Vascular calcification in LDLR−/− mice on high fat diet (Osteosense, Alizarin red); assay type: in vivo; conditions: high fat diet 20 weeks, 2.5 mg/kg ip daily, vs vehicle
Description: Fluorescence reflectance imaging (FRI), was performed as previously described. (Aikawa, E., et al. Osteogenesis associates with inflammation in early-stage atherosclerosis evaluated by molecular imaging in vivo. Circulation 116, 2841-2850 (2007); and Aikawa, E., et al. Multimodality molecular imaging identifies proteolytic and osteogenic activities in early aortic valve disease. Circulation 115, 377-386 (2007).) Animals received 150 μl of OsteoSense 680 and 150 μl of ProSense 750 via tail vein injection 24 hours before euthanasia. After dissection, aortae were subjected to ex vivo near infrared fluorescence reflectance imaging using an Odyssey Imaging System (LI-COR Biotechnology, Lincoln, Nebr.), with integrated signal intensities determined for regions of interest using software version 3.0.16.
Aortas were either immediately embedded and cryopreserved using optimal cutting-temperature medium (Sakura Tissue-Tek, Zoeterwoude, The Netherlands) or fixed in paraformaldehyde and embedded in parafin. The presence of calcification was determined by staining tissue sections with Alizarin red or Von Kossa. Lipid accumulation in tissue sections was visualized by staining with Oil Red O. Liver sections were prepared from paraformaldehyde-fixed tissue and stained with hematoxylin and eosin. […]

HepG2 cells = experiment: ApoB-100 secretion in HepG2 cells (ELISA); assay type: cell-based, human; conditions: compound 13 100 nM, atorvastatin 1 nM, ALK3-Fc 400 ng/mL
Description: Hepatoma G2 (HepG2) cells and human aortic endothelial cells (HAECs) were purchased from the American type culture collection (Manassas, Va.). HepG2 cells were maintained in Eagle's Minimum Essential Medium (EMEM) supplemented with 10% fetal bovine serum, 100 units/ml of penicillin, 0.1 mg/ml of streptomycin and glutamine. HAECs were cultured in endothelial cell basal medium (EBM 2) supplemented with the EBM2 bullet kit (Lonza, Basel, Switzerland). For experiments, cells were seeded into 6 or 12-well plates (BD Falcon, Franklin Lakes, N.J.) at a concentration of 0.5×10^6 cells per 5 mL of media. HAECs were maintained in EBM 2 with 0.1% FBS without additional growth factors for all experiments. HepG2 cells were grown to 70% confluence before they were incubated in EMEM enriched with 0.1% FBS. ApoB-100 measurements were performed in supernatants from HepG2 that had been incubated in EMEM containing 0.5% bovine serum albumin using a commercially available Human ApoB-100 ELISA kit (Mabtech AB, Nacka Strand, Sweden). BMP2 protein measurements were performed in supernatants from HAECs that had been incubated in EBM2 containing 0.1% FBS using a BMP2 ELISA kit (R&D Systems).

[2] = tested on: phosphorylated SMADs 1/5/8; experiment: p-SMAD1/5/8 immunofluorescence in atherosclerotic lesions of LDLR−/− mice; assay type: in vivo
Text: BMP signaling activity in the nascent lesions of LDLR^−/− mice was characterized. Phosphorylated BMP-responsive SMADs (p-SMAD1/5/8), effectors of the BMP signaling pathway that are retained in the nuclei of activated cells, were detected by immunofluorescence in endothelial cells, macrophages, and the media of atheromatous lesions (FIG. 1b), particularly in the lesser curvature of the aorta, beginning three weeks on HFD. Activation of BMP signaling persisted for at least 20 weeks and was abundant near calcific lesions (FIG. 3). To confirm that the activation of SMAD1/5/8 observed in the vessels of LDLR^−/− mice was attributable to BMP signaling, a BMP type I receptor inhibitor, compound 13, was administered (2.5 mg/kg ip daily for five days) to LDLR^−/− mice that had received HFD for 6 weeks.
For immunofluorescence, frozen sections were post-fixed in cold methanol and incubated with polyclonal antibodies specific for p-SMAD1/5/8 (1:100, Cell Signaling, Danvers, Mass.) or MAC2 (1:100, Cedarlane, Burlington, ON) followed by FITC labeled Goat Anti-Rabbit IgG or Rhodamine Goat Anti-Rat IgG (both Jackson Immuno Research, West Grove, Pa.), respectively.
LDLr−/− mice were started on a hypercholesterolemic diet at 8 weeks, and treated with either vehicle (saline) or a BMP inhibitor positive control compound (compound 13, 2.5 mg/kg/d intraperitoneally) for an additional 8 weeks. Aortae were harvested and fixed, and then stained with antibodies sensitive for the BMP effector molecule, phosphorylated-SMAD1/5/8, and counterstained with DAPI nuclear stain. Within 6-8 weeks of being subjected to a high fat diet, LDR−/− mice developed fatty lesions in the intima of the aortic root, based on traditional histochemical staining techniques (data not shown). […] Thus, the cellular components of lipid rich plaques, predominantly macrophage-derived foam cells, had evidence of intense activation of the BMP signaling pathway. […]

In the case of `c1ccc2c(-c3cnn4cc(-c5ccc(N6CCNCC6)cc5)cnc34)ccnc2c1` [Compound 13, 4-[6-(4-piperazin-1-ylphenyl)pyrazolo[1,5-a]pyrimidin-3-yl]quinoline], the “ectopic calcification and disability” value [1] is reported as “prevented the ectopic calcification and disability”, the “vascular calcification / osteogenic activity (fluor-labeled bisphosphonate uptake, Alizarin red)” value (LDLR−/− mice) is reported as “significantly less abundant; also recorded: reduced vascular calcification throughout the aortae; also recorded: severely diminished evidence of osteogenesis” and the “vascular calcification / osteogenic activity (fluor-labeled bisphosphonate uptake, Alizarin red)” value (LDLR−/− mice; listed as BMP inhibitor positive control compound) is reported as “can reduce vascular calcification”. The “BMP2-induced ApoB-100 secretion” value (HepG2 cells; BMP2 100 ng/mL) was “blocked; also recorded: prevented the BMP2-mediated induction of ApoB-100 secretion”, the “basal ApoB-100 secretion (absence of BMP2)” value (HepG2 cells) was “reduced basal apolipoprotein B100 (ApoB-100) secretion; also recorded: inhibited ApoB-100 production” and the “p-SMAD1/5/8 within atherosclerotic lesions” value ([2]; LDLR−/− mice on high fat diet 6 weeks, treated five days, compound 13 2.5 mg/kg ip daily, ALK3-Fc 2 mg/kg ip every other day) was “suppressed phosphorylation of SMADs 1/5/8; also recorded: markedly diminished the detection of p-SMAD1/5/8”. The “p-SMAD1/5/8 staining in aorta” value ([2]; LDLR−/− mice treated during 6 weeks of high fat diet, compound 13 2.5 mg/kg ip daily, ALK3-Fc every other day, 2.5 mg/kg) was “decreased staining for phosphorylated SMAD1/5/8” and the “phosphorylated-SMAD1/5/8 staining in atheroma” value ([2]; LDLr−/− mice, hypercholesterolemic diet and treatment 8 weeks, 2.5 mg/kg/d ip) was “greatly diminished”.
